Data taken from patent US20140072557A1, “MEDICINAL AGENT FOR SUPPRESSING MALIGNANT TUMOR METASTASIS” (priority 2011, published 2014).

Assays:
[1] = tested on: A549 cells; assay: EMT induced by TGF-β1 in A549 cells (morphology, quantitative RT-PCR); type: cell-based; settings: 1 μM hANP, TGF-β1 stimulus
Experimental: Using a 6-well dish, the A549 cells were cultured at 1×10^5 cells/well, and the culture medium was replaced with DMEM culture medium free from FBS the next day. After 24 hours of culture, the cells were used in the following experiment.
An ANP group (ANP solution was added (final concentration: 1 μM)) and a control group (the same amount of physiological saline was added) were prepared, and after 2 hours from the addition, TGF-β1 was added so that the final concentration would be 0.125, 0.25, 0.5, 1.0, and 2.0 ng/mL. After 24 hours had passed, the morphological change in the cells was observed under a microscope and photographed (FIG. 3).
Then, total RNA was collected using TRIZOL total RNA isolation reagent (made by Invitrogen), cDNA was synthesized using reverse transcriptase, and the mRNA levels of E-cadherin, N-cadherin, VEGF-A, PDGF-B, TNF-α, and IL-6 were measured by quantitative RT-PCR. It is known that in EMT, the expression of E-cadherin decreases while the expression of N-cadherin increases. The expression ratio of N-cadherin/E-cadherin is considered to be useful as an indicator of the degree of EMT.

[2] = tested on: HUVEC; assay: VE-cadherin expression and intercellular adhesion of confluent HUVEC with VEGF; type: cell-based, human; settings: VEGF+hANP
Experimental: Normal human umbilical cord vein endothelial cells (HUVEC) were purchased from Takara Bio, Inc. Medium preparation and subculture were performed according to the package insert. Nuclear staining was performed using TOPRO3 (purchased from Invitrogen), and immunostaining of VE-cadherin was performed using anti-VE-cadherin antibody (purchased from BD Biosciences). p After culturing the HUVEC to confluent and replacing the medium with a serum free medium, nuclear staining and immunostaining using anti-VE-cadherin antibody were performed in the presence or absence of VEGF and hANP to observe the expression of VE-cadherin.

CC[C@H](C)[C@@H]1NC(=O)[C@H](CCCNC(=N)N)NC(=O)[C@H](CC(=O)O)NC(=O)[C@H](CCSC)NC(=O)[C@H](CCCNC(=N)N)NC(=O)CNC(=O)CNC(=O)[C@H](Cc2ccccc2)NC(=O)[C@@H](NC(=O)[C@H](CO)NC(=O)[C@H](CO)NC(=O)[C@H](CCCNC(=N)N)NC(=O)[C@H](CCCNC(=N)N)NC(=O)[C@H](CC(C)C)NC(=O)[C@@H](N)CO)CSSC[C@@H](C(=O)N[C@@H](CC(N)=O)C(=O)N[C@@H](CO)C(=O)N[C@@H](Cc2ccccc2)C(=O)N[C@@H](CCCNC(=N)N)C(=O)N[C@@H](Cc2ccc(O)cc2)C(=O)O)NC(=O)CNC(=O)[C@H](CC(C)C)NC(=O)CNC(=O)[C@H](CO)NC(=O)[C@H](CCC(N)=O)NC(=O)[C@H](C)NC(=O)CNC1=O [hANP, carperitide]
expression of E-cadherin under TGF-β1 stimulus [1]: inhibited decrease
expression of N-cadherin induced by TGF-β1 [1]: significantly suppressed increase
expression ratio of N-cadherin/E-cadherin [1]: significantly decreased
gene expression of IL-6 (mRNA level) [1]: significantly suppressed
gene expression of PDGF-B (mRNA level) [1]: significantly suppressed
gene expression of TNF-α (mRNA level) [1]: significantly suppressed
gene expression of VEGF-A (mRNA level) [1]: significantly suppressed
morphological change associated with EMT induced by TGF-β1 ([1]; 24 hours): significantly suppressed
decrease of VE-cadherin expression and intercellular gaps caused by VEGF [2]: this phenomenon was suppressed
